Reference: patent US7820379B2, “Process for high throughput screening of CpG-based immuno-agonist/antagonist” (Coley Pharmaceutical GmbH, priority 2000, dated 2010)

How the values were obtained:
[1] = target: T1, murine TLR9 (Mus musculus, UniProt Q9EQU3, L378S/Q579H/T325N/T573A/T867A); assay: IL-8 production by ELISA in 293 cells transfected with murine TLR9; type: cell-based; conditions: 293 cells transiently transfected with mTLR9, stimulated with 1.0 μM CpG-ODN 1668; 48 h
T1 construct: additional primers were designed for amplification of the complete mouse TLR9 cDNA; expressed in transfected cells
T1 sequence (Q9EQU3 26-1032 T325N/L378S/T573A/Q579H/T867A): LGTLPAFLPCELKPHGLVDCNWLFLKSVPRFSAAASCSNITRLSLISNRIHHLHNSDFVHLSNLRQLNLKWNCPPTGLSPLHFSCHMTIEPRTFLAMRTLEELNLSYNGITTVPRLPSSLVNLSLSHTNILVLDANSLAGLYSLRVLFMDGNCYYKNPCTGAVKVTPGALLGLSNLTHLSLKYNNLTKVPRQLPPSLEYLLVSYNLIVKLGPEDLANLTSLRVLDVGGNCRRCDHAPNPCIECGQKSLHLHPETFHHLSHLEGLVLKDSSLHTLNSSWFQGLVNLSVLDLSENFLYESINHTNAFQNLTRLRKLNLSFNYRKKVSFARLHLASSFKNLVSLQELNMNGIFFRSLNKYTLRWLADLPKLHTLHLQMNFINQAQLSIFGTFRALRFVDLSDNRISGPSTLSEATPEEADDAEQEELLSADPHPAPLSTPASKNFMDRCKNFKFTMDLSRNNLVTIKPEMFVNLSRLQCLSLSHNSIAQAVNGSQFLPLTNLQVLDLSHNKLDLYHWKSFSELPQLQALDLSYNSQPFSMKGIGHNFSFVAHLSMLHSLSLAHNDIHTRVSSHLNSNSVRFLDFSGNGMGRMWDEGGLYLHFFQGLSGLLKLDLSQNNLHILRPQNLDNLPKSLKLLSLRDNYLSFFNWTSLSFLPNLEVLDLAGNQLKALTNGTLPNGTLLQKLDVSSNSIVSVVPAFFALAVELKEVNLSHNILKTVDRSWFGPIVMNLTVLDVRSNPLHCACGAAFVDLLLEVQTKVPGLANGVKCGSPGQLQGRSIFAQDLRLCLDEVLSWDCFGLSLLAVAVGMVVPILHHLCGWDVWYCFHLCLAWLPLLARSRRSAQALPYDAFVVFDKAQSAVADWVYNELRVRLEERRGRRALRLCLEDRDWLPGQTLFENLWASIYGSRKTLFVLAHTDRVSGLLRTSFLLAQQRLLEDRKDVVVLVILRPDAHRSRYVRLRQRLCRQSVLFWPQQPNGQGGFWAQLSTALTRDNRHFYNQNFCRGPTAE
Text: Human fibroblast 293 cells were transiently transfected with mTLR9 and the NF-κB-luc construct (FIG. 2). Similar data was obtained for IL-8 production (not shown). Thus expression of TLR9 (human or mouse) in 293 cells results in a gain of function for CpG-DNA stimulation similar to hTLR4 reconstitution of LPS responses.
To generate stable clones expressing human TLR9, murine TLR9, or either TLR9 with the NF-κB-luc reporter plasmid, 293 cells were transfected in 10 cm plates (2×10^6 cells/plate) with 16 μg of DNA and selected with 0.7 mg/ml G418 (PAA Laboratories GmbH, Cölbe, Germany). The clones were also screened for IL-8 production or NF-κB-luciferase activity after stimulation with ODN. Four different types of clones were generated. • 293-hTLR9-luc: expressing human TLR9 and 6-fold NF-κB-luciferase reporter • 293-mTLR9-luc: expressing murine TLR9 and 6-fold NF-κB-luciferase reporter • 293-hTLR9: expressing human TLR9 • 293-mTLR9: expressing murine TLR9
It has been hypothesized that in order for DNA to enter the endosomal/lysosomal compartment a non-CpG dependent uptake receptor may be required. 293 cells were transiently transfected with mTLR9 treated with either medium only or 1.0 μM CpG-ODN 1668 (FIG. 15). […] IL-8 production was monitored after 48 h by ELISA.

[2] = test system: TLR9; assay: Expression of TLR9; type: cell-based
Text: The invention also embraces agents which bind selectively to certain regulatory sequences associated with the murine TLR9 nucleic acid molecules described herein. The agents include polypeptides which bind to transcription and translation regulatory sequences of murine TLR9, and antisense nucleic acids, both of which are described in greater detail below. The agents can inhibit or increase murine TLR9 expression, as well as signaling activity (antagonists and agonists, respectively). Agents which bind selectively to regulatory sequences associated with the murine TLR9 nucleic acid molecules can be identified using methods familiar to those of skill in the art. For example, a promoter region including at least 100, 200, 300, 400, 500, or more nucleotides upstream (5′) of the coding region of murine TLR9 can be identified by isolating, from appropriate genomic DNA, such nucleotide sequences using the sequences of SEQ ID NO:1 or SEQ ID NO:2 as primers or as probes, and then inserting the promoter region DNA into an appropriate expression vector so as to control the expression of TLR9 or some other reporter gene, introducing the TLR9 promoter vector into an appropriate host cell, and screening for TLR9 or reporter expression by those cells following their incubation in the presence and absence of various test agents. […]

For “5′-CTCCTAGTGGGGGTGTCCTAT-3′ (listed as DNA, chemistry not given here) [PZ2]”, the “antagonism of activation (IL-8 production)” value [1] was “in a dose-dependent manner, was able to antagonize the activation”.

B1: IL-4: the cytokine IL-4 (protein, UniProt P05112 25-153, looked up)
Interleukin-4: HKCDITLQEIIKTLNSLTEQKTLCTELTVTDIFAASKNTTEKETFCRAATVLRQFYSHHEKDTRCLGATAQQFHRHKQLIRFLKRLDRNLWGLAGLNSCPVKEANQSTLENFLERLKTIMREKYSKCSS
In the case of B1, the “expression of TLR9” value [2] is reported as “inhibits”.
